This note sets out measurements from patent publication US4402944A, “Polysulfonate Sennoside A & B compounds and method of use” (American Cyanamid Company, priority 1982, dated 1983).

One assay concerns activated human C1. Kind of assay: Test Code 026 (C1 inhibitor). The class given is biochemical. The conditions noted are these: serial two fold dilution assay; higher well number indicates higher activity; protection of human C2 from C1 and C4. On the procedure: (§1) An active inhibitor protects C2 from C1 and C4; (ii) Test Code 035 (C3-C9 inhibitor)-This test determines the ability of the late components of human complement (C3-C9) to lyse EAC 142 in the presence of appropriate dilutions of the test compound. An active inhibitor protects EAC 142 from lysis by human C3-C9; and (iii) Cap 50 Test-Here, appropriate amounts of the test compound are added to a pool of guinea pig serum in vitro, after which the undiluted serum capillary tube assay of U.S. Pat. No. 3,876,376 is run. The concentration of compound inhibiting 50% is reported.

Assay [1] concerns late components of human complement (C3-C9). Kind of assay: Test Code 035 (C3-C9 inhibitor). The class given is biochemical. The conditions noted are these: serial two fold dilution assay; higher well number indicates higher activity; protection of EAC 142 from lysis. How it is done:
as §1

Structures are written as SMILES. Structures can show the parent of a compound that is named as a salt.

Consider `O=C(O)c1cc(OS(=O)(=O)O)c2c(c1)[C@H]([C@H]1c3cccc(O[C@@H]4O[C@H](COS(=O)(=O)O)[C@@H](OS(=O)(=O)O)[C@H](OS(=O)(=O)O)[C@H]4OS(=O)(=O)O)c3C(=O)c3c(OS(=O)(=O)O)cc(C(=O)O)cc31)c1cccc(O[C@@H]3O[C@H](COS(=O)(=O)O)[C@@H](OS(=O)(=O)O)[C@H](OS(=O)(=O)O)[C@H]3OS(=O)(=O)O)c1C2=O` (relative stereo) [(R*,S*)-5,5'-Bis-(β-D-glucopyranosyloxy)-9,9',10,10'-tetrahydro-4,4'-dihydroxy-10,10'-dioxo-[9,9'-bianthracene]-2,2'-dicarboxylic acid, decakis (H-sulfate), decasodium salt], for which the “026 (C1 inhibitor), activity in wells” value in the assay on activated human C1 worked out at 7 wells. Moreover, the “035 (C3-C9 inhibitor), activity in wells” value in assay [1] was 1 wells.
For `O=C(O)c1cc(OS(=O)(=O)O)c2c(c1)C(C1c3cccc(OC4OC(COS(=O)(=O)O)C(OS(=O)(=O)O)C(OS(=O)(=O)O)C4OS(=O)(=O)O)c3C(=O)c3c(OS(=O)(=O)O)cc(C(=O)O)cc31)c1cccc(OC3OC(COS(=O)(=O)O)C(OS(=O)(=O)O)C(OS(=O)(=O)O)C3OS(=O)(=O)O)c1C2=O` [(R*,R*)-5,5'-Bis-(β-D-glucopyranosyloxy)-9,9',10,10'-tetrahydro-4,4'-dihydroxy-10,10'-dioxo-[9,9'-bianthracene]-2,2'-dicarboxylic acid, decakis (H-sulfate), decasodium salt], in that order: 8 wells and 2 wells.
